Source: patent publication US10227344B2, “CK2 inhibitors, compositions and methods thereof” (Polaris Pharmaceuticals, Inc., priority 2016, dated 2019)

What was measured:
Type in all cases: cell-based
MDA-MB-453 = experiment: Cancer cell panel, cell viability (resazurin): Breast, MDA-MB-453; settings: MDA-MB-453 (Breast), 72 hours; labelled drug combined with Example 3
A549 = experiment: Cancer cell panel, cell viability (resazurin): NSCLC, A549; settings: 72 hours, labelled drug combined with Example 3
PC3 = experiment: Cancer cell panel, cell viability (resazurin): Prostate, PC3; settings: 72 hours, labelled drug combined with Example 3
RPMI8226 = experiment: Cancer cell panel, cell viability (resazurin): multiple myeloma, RPMI8226; settings: 72 hours, labelled drug combined with Example 3
H1299 = experiment: Cancer cell panel, cell viability (resazurin): NSCLC, H1299; settings: 72 hours, labelled drug combined with Example 3
Caki-2 = experiment: Cancer cell panel, cell viability (resazurin): Renal, Caki-2; settings: Caki-2 (Renal), 72 hours; labelled drug combined with Example 3
786-O = experiment: Cancer cell panel, cell viability (resazurin): Renal, 786-O; settings: 786-O (Renal), 72 hours; labelled drug combined with Example 3
BxPC3 = experiment: Cancer cell panel, cell viability (resazurin): Pancreatic, BxPC3; settings: 72 hours, labelled drug combined with Example 3
H23 = experiment: Cancer cell panel, cell viability (resazurin): NSCLC, H23; settings: 72 hours, labelled drug combined with Example 3
WM-115 = experiment: Cancer cell panel, cell viability (resazurin): Melanoma, WM-115; settings: WM-115 (Melanoma), 72 hours; labelled drug combined with Example 3
MOLT4 = experiment: Cancer cell panel, cell viability (resazurin): Leukemia, MOLT4; settings: 72 hours, labelled drug combined with Example 3
ZR-75-1 = experiment: Cancer cell panel, cell viability (resazurin): Breast, ZR-75-1; settings: ZR-75-1 (Breast), 72 hours; labelled drug combined with Example 3
Caov-3 = experiment: Cancer cell panel, cell viability (resazurin): Ovarian, Caov-3; settings: Caov-3 (Ovarian), 72 hours; labelled drug combined with Example 3
BT-20 = experiment: Cancer cell panel, cell viability (resazurin): Breast, BT-20; settings: BT-20 (Breast), 72 hours; labelled drug combined with Example 3
NAMALWA = experiment: Cancer cell panel, cell viability (resazurin): Burkitt's Lymphoma, NAMALWA; settings: 72 hours, labelled drug combined with Example 3
SKOV-3 = experiment: Cancer cell panel, cell viability (resazurin): Ovarian, SKOV-3; settings: SKOV-3 (Ovarian), 72 hours; labelled drug combined with Example 3
MDA-MB-231 = experiment: Cancer cell panel, cell viability (resazurin): Breast, MDA-MB-231; settings: MDA-MB-231 (Breast), 72 hours; labelled drug combined with Example 3
Panc-1 = experiment: Cancer cell panel, cell viability (resazurin): Pancreatic, Panc-1; settings: Panc-1 (Pancreatic), 72 hours; labelled drug combined with Example 3
T47D = experiment: Cancer cell panel, cell viability (resazurin): Breast, T47D; settings: 72 hours, labelled drug combined with Example 3
MeWO = experiment: Cancer cell panel, cell viability (resazurin): Melanoma, MeWO; settings: 72 hours, labelled drug combined with Example 3
H460 = experiment: Cancer cell panel, cell viability (resazurin): NSCLC, H460; settings: 72 hours, labelled drug combined with Example 3
Colo205 = experiment: Cancer cell panel, cell viability (resazurin): Colon, Colo205; settings: 72 hours, labelled drug combined with Example 3
MDA-MB-157 = experiment: Cancer cell panel, cell viability (resazurin): Breast, MDA-MB-157; settings: MDA-MB-157 (Breast), 72 hours; labelled drug combined with Example 3
LoVo = experiment: Cancer cell panel, cell viability (resazurin): Colon, LoVo; settings: 72 hours, labelled drug combined with Example 3
Daudi = experiment: Cancer cell panel, cell viability (resazurin): Burkitt's Lymphoma, Daudi; settings: 72 hours, labelled drug combined with Example 3
SK-MEL-24 = experiment: Cancer cell panel, cell viability (resazurin): Melanoma, SK-MEL-24; settings: SK-MEL-24 (Melanoma), 72 hours; labelled drug combined with Example 3
DLD-1 = experiment: Cancer cell panel, cell viability (resazurin): Colon, DLD-1; settings: DLD-1 (Colon), 72 hours; labelled drug combined with Example 3
SkBr-3 = experiment: Cancer cell panel, cell viability (resazurin): Breast, SkBr-3; settings: SkBr-3 (Breast), 72 hours; labelled drug combined with Example 3
LnCap = experiment: Cancer cell panel, cell viability (resazurin): Prostate, LnCap; settings: 72 hours, labelled drug combined with Example 3
Caki-1 = experiment: Cancer cell panel, cell viability (resazurin): Renal, Caki-1; settings: Caki-1 (Renal), 72 hours; labelled drug combined with Example 3
HL60 = experiment: Cancer cell panel, cell viability (resazurin): Leukemia, HL60; settings: 72 hours, labelled drug combined with Example 3
U87MG = experiment: Cancer cell panel, cell viability (resazurin): Glioblastoma, U87MG; settings: 72 hours, labelled drug combined with Example 3
ACHN = experiment: Cancer cell panel, cell viability (resazurin): Renal, ACHN; settings: 72 hours, labelled drug combined with Example 3
Mia-Paca-2 = experiment: Cancer cell panel, cell viability (resazurin): Pancreatic, Mia-Paca-2; settings: Mia-Paca-2 (Pancreatic), 72 hours; labelled drug combined with Example 3
HCT116 = experiment: Cancer cell panel, cell viability (resazurin): Colon, HCT116; settings: 72 hours, labelled drug combined with Example 3
K562 = experiment: Cancer cell panel, cell viability (resazurin): Leukemia, K562; settings: 72 hours, labelled drug combined with Example 3
Raji = experiment: Cancer cell panel, cell viability (resazurin): Burkitt's Lymphoma, Raji; settings: 72 hours, labelled drug combined with Example 3
Ramos = experiment: Cancer cell panel, cell viability (resazurin): Burkitt's Lymphoma, Ramos; settings: 72 hours, labelled drug combined with Example 3
EOL-1 = experiment: Cancer cell panel, cell viability (resazurin): Leukemia, EOL-1; settings: EOL-1 (Leukemia), 72 hours; labelled drug combined with Example 3
BT-474 = experiment: Cancer cell panel, cell viability (resazurin): Breast, BT-474; settings: BT-474 (Breast), 72 hours; labelled drug combined with Example 3
H2122 = experiment: Cancer cell panel, cell viability (resazurin): NSCLC, H2122; settings: 72 hours, labelled drug combined with Example 3
A2780 = experiment: Cancer cell panel, cell viability (resazurin): Ovarian, A2780; settings: 72 hours, labelled drug combined with Example 3
A375 = experiment: Cancer cell panel, cell viability (resazurin): Melanoma, A375; settings: 72 hours, labelled drug combined with Example 3
SK-MEL-3 = experiment: Cancer cell panel, cell viability (resazurin): Melanoma, SK-MEL-3; settings: SK-MEL-3 (Melanoma), 72 hours; labelled drug combined with Example 3
H1975 = experiment: Cancer cell panel, cell viability (resazurin): NSCLC, H1975; settings: 72 hours, labelled drug combined with Example 3
MCF7 = experiment: Cancer cell panel, cell viability (resazurin): Breast, MCF7; settings: 72 hours, labelled drug combined with Example 3

For `Nc1ccn([C@@H]2O[C@H](CO)[C@@H](O)C2(F)F)c(=O)n1` [Gemcitabine, gemcitabine], the “synergy, additivity or antagonism of the combination of Example 3 with the anti-cancer drug” value (“synergy, additivity or antagonism” for short) (MDA-MB-453) was “+ + (Slight synergy relative to each agent alone (CI = 0.75-0.9 by Bliss Independence Model))”, the “synergy, additivity or antagonism” value (A549) was “+ + + + (Strong synergy relative to each agent alone (CI < 0.4 by Bliss Independence Model))” and the “synergy, additivity or antagonism” value (PC3) was “+ (Additive relative to each agent alone (CI = 0.9-1 by Bliss Independence Model and <0.9 by Highest Single Agent Model))”. The “synergy, additivity or antagonism” value (RPMI8226) was “+ + (Slight synergy relative to each agent alone (CI = 0.75-0.9 by Bliss Independence Model))”, the “synergy, additivity or antagonism” value (H1299) was “+ (Additive relative to each agent alone (CI = 0.9-1 by Bliss Independence Model and <0.9 by Highest Single Agent Model))” and the “synergy, additivity or antagonism” value (Caki-2) was “+ (Additive relative to each agent alone (CI = 0.9-1 by Bliss Independence Model and <0.9 by Highest Single Agent Model))”. The “synergy, additivity or antagonism” value (786-O) was “+ + + (Synergy relative to each agent alone (CI = 0.4-0.74 by Bliss Independence Model))”, the “synergy, additivity or antagonism” value (BxPC3) was “+ + + (Synergy relative to each agent alone (CI = 0.4-0.74 by Bliss Independence Model))” and the “synergy, additivity or antagonism” value (H23) was “+ (Additive relative to each agent alone (CI = 0.9-1 by Bliss Independence Model and <0.9 by Highest Single Agent Model))”. The “synergy, additivity or antagonism” value (WM-115) was “+ (Additive relative to each agent alone (CI = 0.9-1 by Bliss Independence Model and <0.9 by Highest Single Agent Model))”, the “synergy, additivity or antagonism” value (MOLT4) was “+ + + (Synergy relative to each agent alone (CI = 0.4-0.74 by Bliss Independence Model))” and the “synergy, additivity or antagonism” value (ZR-75-1) was “+ (Additive relative to each agent alone (CI = 0.9-1 by Bliss Independence Model and <0.9 by Highest Single Agent Model))”. For the same compound, the “synergy, additivity or antagonism” value (Caov-3) was “+ (Additive relative to each agent alone (CI = 0.9-1 by Bliss Independence Model and <0.9 by Highest Single Agent Model))”, the “synergy, additivity or antagonism” value (BT-20) was “+ (Additive relative to each agent alone (CI = 0.9-1 by Bliss Independence Model and <0.9 by Highest Single Agent Model))” and the “synergy, additivity or antagonism” value (NAMALWA) was “+ + (Slight synergy relative to each agent alone (CI = 0.75-0.9 by Bliss Independence Model))”. The “synergy, additivity or antagonism” value (SKOV-3) was “+ + (Slight synergy relative to each agent alone (CI = 0.75-0.9 by Bliss Independence Model))”, the “synergy, additivity or antagonism” value (MDA-MB-231) was “+ + (Slight synergy relative to each agent alone (CI = 0.75-0.9 by Bliss Independence Model))” and the “synergy, additivity or antagonism” value (Panc-1) was “+ (Additive relative to each agent alone (CI = 0.9-1 by Bliss Independence Model and <0.9 by Highest Single Agent Model))”. The “synergy, additivity or antagonism” value (T47D) was “+ (Additive relative to each agent alone (CI = 0.9-1 by Bliss Independence Model and <0.9 by Highest Single Agent Model))”, the “synergy, additivity or antagonism” value (MeWO) was “+ (Additive relative to each agent alone (CI = 0.9-1 by Bliss Independence Model and <0.9 by Highest Single Agent Model))” and the “synergy, additivity or antagonism” value (H460) was “+ + (Slight synergy relative to each agent alone (CI = 0.75-0.9 by Bliss Independence Model))”. The “synergy, additivity or antagonism” value (Colo205) was “+ (Additive relative to each agent alone (CI = 0.9-1 by Bliss Independence Model and <0.9 by Highest Single Agent Model))”, the “synergy, additivity or antagonism” value (MDA-MB-157) was “+ + (Slight synergy relative to each agent alone (CI = 0.75-0.9 by Bliss Independence Model))” and the “synergy, additivity or antagonism” value (LoVo) was “+ (Additive relative to each agent alone (CI = 0.9-1 by Bliss Independence Model and <0.9 by Highest Single Agent Model))”. The “synergy, additivity or antagonism” value (Daudi) was “+ + (Slight synergy relative to each agent alone (CI = 0.75-0.9 by Bliss Independence Model))”, the “synergy, additivity or antagonism” value (SK-MEL-24) was “+ (Additive relative to each agent alone (CI = 0.9-1 by Bliss Independence Model and <0.9 by Highest Single Agent Model))” and the “synergy, additivity or antagonism” value (DLD-1) was “+ (Additive relative to each agent alone (CI = 0.9-1 by Bliss Independence Model and <0.9 by Highest Single Agent Model))”. The “synergy, additivity or antagonism” value (SkBr-3) was “+ (Additive relative to each agent alone (CI = 0.9-1 by Bliss Independence Model and <0.9 by Highest Single Agent Model))”, the “synergy, additivity or antagonism” value (LnCap) was “+ (Additive relative to each agent alone (CI = 0.9-1 by Bliss Independence Model and <0.9 by Highest Single Agent Model))” and the “synergy, additivity or antagonism” value (Caki-1) was “+ (Additive relative to each agent alone (CI = 0.9-1 by Bliss Independence Model and <0.9 by Highest Single Agent Model))”. The “synergy, additivity or antagonism” value (HL60) was “+ + (Slight synergy relative to each agent alone (CI = 0.75-0.9 by Bliss Independence Model))”, the “synergy, additivity or antagonism” value (U87MG) was “+ (Additive relative to each agent alone (CI = 0.9-1 by Bliss Independence Model and <0.9 by Highest Single Agent Model))” and the “synergy, additivity or antagonism” value (ACHN) was “+ (Additive relative to each agent alone (CI = 0.9-1 by Bliss Independence Model and <0.9 by Highest Single Agent Model))”. The “synergy, additivity or antagonism” value (Mia-Paca-2) was “+ + (Slight synergy relative to each agent alone (CI = 0.75-0.9 by Bliss Independence Model))”, the “synergy, additivity or antagonism” value (HCT116) was “+ (Additive relative to each agent alone (CI = 0.9-1 by Bliss Independence Model and <0.9 by Highest Single Agent Model))” and the “synergy, additivity or antagonism” value (K562) was “+ (Additive relative to each agent alone (CI = 0.9-1 by Bliss Independence Model and <0.9 by Highest Single Agent Model))”. The “synergy, additivity or antagonism” value (Raji) was “+ + (Slight synergy relative to each agent alone (CI = 0.75-0.9 by Bliss Independence Model))”, the “synergy, additivity or antagonism” value (Ramos) was “+ + (Slight synergy relative to each agent alone (CI = 0.75-0.9 by Bliss Independence Model))” and the “synergy, additivity or antagonism” value (EOL-1) was “+ + + + (Strong synergy relative to each agent alone (CI < 0.4 by Bliss Independence Model))”. For the same compound, the “synergy, additivity or antagonism” value (BT-474) was “+ (Additive relative to each agent alone (CI = 0.9-1 by Bliss Independence Model and <0.9 by Highest Single Agent Model))”, the “synergy, additivity or antagonism” value (H2122) was “+ + (Slight synergy relative to each agent alone (CI = 0.75-0.9 by Bliss Independence Model))” and the “synergy, additivity or antagonism” value (A2780) was “+ + + (Synergy relative to each agent alone (CI = 0.4-0.74 by Bliss Independence Model))”. The “synergy, additivity or antagonism” value (A375) was “+ (Additive relative to each agent alone (CI = 0.9-1 by Bliss Independence Model and <0.9 by Highest Single Agent Model))”, the “synergy, additivity or antagonism” value (SK-MEL-3) was “+ (Additive relative to each agent alone (CI = 0.9-1 by Bliss Independence Model and <0.9 by Highest Single Agent Model))” and the “synergy, additivity or antagonism” value (H1975) was “+ (Additive relative to each agent alone (CI = 0.9-1 by Bliss Independence Model and <0.9 by Highest Single Agent Model))”. The “synergy, additivity or antagonism” value (MCF7) was “+ (Additive relative to each agent alone (CI = 0.9-1 by Bliss Independence Model and <0.9 by Highest Single Agent Model))”.
